Measurements taken from US8859490B2, “Peptide nucleic acid monomers and oligomers” (Nanyang Technological University, priority 2008, dated 2014).
“Also recorded” adds a separate entry of the source.

System: Hela cells
Assay: Cell uptake of FAM-labelled oligomers, fluorescence confocal microscopy
Format: cell-based
Settings: fluorescein-labelled, 0.5 μM, 24 h, 37° C.
Description: Culture and transfection of Hela cells with fluorescein-labeled aegPNA, AP-PNA, GP-PNA oligomers and Tat peptide were carried out according to previously published protocols (Janowski, B. A., et al., Nature Protocols (2006) 1, 436; Shiraishi, T., &. Nielsen, P. E., Nature Protocols (2006) 1, 633). Hela cells were grown in 75-cm^2 culture flasks at 37° C. in an atmosphere of 5% CO2 in Hyclone DMEM/High Glucose medium without antibiotics and were plated at 100,000 cells per well on 6-well Lab-Tek chambered coverglass slides in DMEM medium and cultured two days before transfection. Oligomer solutions were prepared by diluting a 200 μM stock solution at 1×PBS buffer to 0.5 μM with warmed (37° C.) medium. The cell medium was discarded and cells were washed with 1×PBS buffer followed by incubation with the above prepared oligomers at a concentration of 0.5 μM for 24 h at 37° C. in an atmosphere of 5% CO2. The medium was removed and cells were washed with 1×PBS buffer (2 mL×3) and fixed with […]. The cells were imaged with Olympus IX51 fitted with Cool SNAP^HQ camera and analyzed using Metamorph software (Molecular Devices).
For the present example the GP-PNA and AP-PNA with the 6-C spacer was chose to examine the cell-uptake activity, since these display the strongest binding affinity when complexed to complementary DNA. Dodecamer aegPNA (Fl-TAGTAGATCACT-Gly-NH2) (SEQ ID NO:1), AP-PNA (Fl-TA^6aGT^6aAG^6aAT^6aCA^6aCT^6a-Gly-NH2) (SEQ ID NO:2), GP-PNA (Fl-TA^6gGT^6gAG^6gAT^6gCA^6gCT^6g-Gly-NH2) (SEQ ID NO:3) oligomers and Tat peptide (Fl-Tyr-Gly-Arg-Lys-Lys-Arg-Arg-Gln-Arg-Arg-Arg-NH2) (SEQ ID NO:4) were synthesized and labeled by fluorescein at the N-terminus. These oligomers were incubated with Hela cells for 24 h at 37° C. and were fixed by paraformaldehyde after PBS (1×) buffer washing. Their uptake properties were determined by fluorescence confocal microscopy. […] To conclude, the guanidino groups pendant from the backbone amide nitrogen confer cell-permeability to the modified PNAs.

Substance	cell uptake (fluorescence in cells)
Fl-TAGTAGATCACT-Gly-NH2 [aegPNA, reference compound]	poor cell uptake property
Fl-TA^6gGT^6gAG^6gAT^6gCA^6gCT^6g-Gly-NH2 [GP-PNA]	clear and strong fluorescence images were detected in almost all cells; also recorded: readily taken up by Hela cells
Fl-TA^6aGT^6aAG^6aAT^6aCA^6aCT^6a-Gly-NH2 [AP-PNA]	better cell uptake property than the aegPNA; also recorded: moderate enhancement in cell uptake activity compared with aegPNA
